Measurements taken from patent US11401277B2, “Anti-bacterial heterocyclic compounds and their synthesis” (Bugworks Research, Inc., priority 2017, dated 2022).
pIC50: −log10 of the molar value. Values after ≈ are worked out from the molar mass of the structure shown. Values joined by “and” are separate entries in the source; they are usually repeats but may differ in a detail not shown here. Identical values can stand only once.

Assays:
hERG potassium channel = biological target: T1, hERG potassium channel (Homo sapiens, UniProt Q12809); test: hERG inhibition assay, QPatch HTX automated electrophysiology; format: cell-based; details: CHO cell line expressing hERG; whole-cell patch clamp, room temperature
T1 construct: Chinese Hamster Ovary cell line stably expressing the full-length hERG potassium channel; expressed in transfected cells
T1 sequence (Q12809 whole entry): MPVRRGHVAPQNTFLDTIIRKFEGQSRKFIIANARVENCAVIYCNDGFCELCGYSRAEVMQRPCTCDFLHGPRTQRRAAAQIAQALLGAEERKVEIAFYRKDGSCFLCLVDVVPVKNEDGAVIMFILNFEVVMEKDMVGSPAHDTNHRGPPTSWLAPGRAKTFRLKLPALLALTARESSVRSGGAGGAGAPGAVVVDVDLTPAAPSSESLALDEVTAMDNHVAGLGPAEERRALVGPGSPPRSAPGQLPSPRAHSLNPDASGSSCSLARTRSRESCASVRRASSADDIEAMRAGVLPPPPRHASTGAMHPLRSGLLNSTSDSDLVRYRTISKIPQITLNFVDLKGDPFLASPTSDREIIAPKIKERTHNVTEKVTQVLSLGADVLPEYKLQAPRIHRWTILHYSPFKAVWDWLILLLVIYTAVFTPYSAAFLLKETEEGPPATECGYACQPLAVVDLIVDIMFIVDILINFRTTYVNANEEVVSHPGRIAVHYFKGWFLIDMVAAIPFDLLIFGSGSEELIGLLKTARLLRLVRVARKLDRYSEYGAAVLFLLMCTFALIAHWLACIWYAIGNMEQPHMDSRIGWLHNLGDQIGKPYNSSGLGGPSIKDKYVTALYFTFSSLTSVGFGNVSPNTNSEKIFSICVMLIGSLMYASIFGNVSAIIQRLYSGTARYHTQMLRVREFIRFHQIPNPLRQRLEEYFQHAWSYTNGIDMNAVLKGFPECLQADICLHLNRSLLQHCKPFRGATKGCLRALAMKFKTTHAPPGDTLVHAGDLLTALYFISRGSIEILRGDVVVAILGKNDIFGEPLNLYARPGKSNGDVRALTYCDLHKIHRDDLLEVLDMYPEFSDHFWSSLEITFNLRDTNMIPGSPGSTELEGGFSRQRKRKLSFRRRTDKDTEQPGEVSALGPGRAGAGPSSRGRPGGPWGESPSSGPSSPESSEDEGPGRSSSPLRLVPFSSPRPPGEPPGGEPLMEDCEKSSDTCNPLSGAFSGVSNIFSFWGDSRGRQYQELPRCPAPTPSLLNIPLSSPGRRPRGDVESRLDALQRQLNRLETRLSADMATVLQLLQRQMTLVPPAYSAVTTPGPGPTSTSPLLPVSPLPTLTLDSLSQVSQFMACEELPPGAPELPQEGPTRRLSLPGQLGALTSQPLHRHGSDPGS
Method: The compounds were tested for inhibition of the human ether a go-go related gene (hERG) K+ channel using QPatch HTX automated electrophysiology.
Compounds of Formula I were solubilised to 100 mM in DMSO before dilution in HBPS to 300 μM.
Electrophysiological recordings were made from a Chinese Hamster Ovary cell line stably expressing the full-length hERG potassium channel. Single cell ionic currents were measured in whole-cell patch clamp configuration at room temperature (21-23° C.) using the QPatch HTX platform (Sophion). Intracellular solution contained (mM): 120 KF, 20 KCl, 10 EGTA, 10 HEPES and was buffered to pH 7.3. […] Cells were clamped at a holding potential of −80 mV. Cells were stepped to +20 mV for 2 s then −40 mV for 3 s before returning to the holding potential. This sweep was repeated 10 times at 10 s intervals. hERG currents were measured from the tail step and referenced to the holding current. Compounds were then incubated for 2 minutes prior to a second measurement of ion channel current using an identical pulse train.

[1] = system: P. aeruginosa [ATCC27853]; test: Neutropenic Lung Infection Model in Rat; format: in vivo; details: for MEAN ± SD (Log10 CFU/g Lung) / Mean Log 10 CFU/g lung reduction (wrt 4 h PI control: 6.52 Log10CFU/g lung) / Log10 CFU/g Lung: i.v., 1 h infusion; for Log10 CFU/g Lung: individual animals, 24 h post infection
Method: Animals were placed into an induction chamber and anaesthesia was induced by exposing the animals to 3-5% Isoflurane in an oxygen flow set at approximately (˜) 1 liter per minute (LPM). […] A gentle mixing of inoculum between two animals was followed for uniform distribution.
Meropenem was formulated in saline.
Entire Lung was aseptically isolated, weighed and placed into 1 mL of sterile CSDB broth, and homogenized (Omni Tip (220 V hand held)). Serial ten-fold dilutions of the lungs homogenates were prepared in sterile CSD broth and 0.05 mL of four dilutions for each tissue was plated onto CSDA agar plates. Bacterial colonies were enumerated following overnight incubation at 37° C. Bacterial densities were estimated as Log10 CFU/g lung. The Mean±SD Log10 CFU/g lung was estimated in each group.

[2] = Stability of IV formulation at room temperature; format: physicochemical; details: 10% L-ascorbic acid formulation
[3] = system: A. baumanni clinical strains; test: Susceptibility (MIC50 and MIC90 determination) studies, clinical strains; format: cell-based; details: CLSI
K. pneumoniae ATCC 13883 = test: MIC studies in LB Media; format: cell-based; details: Klebsiella pneumoniae, ATCC13883, read-out: Minimum Inhibitory Concentration in LB Media, K. pn
Method: (§1) Bacterial cultures that were stored as glycerol stocks at −80° C. were sub cultured on LB agar plates to obtain isolated colonies. A single colony of each strain was cultured in LB broth. The cultures were incubated at 37° C., 200 rpm till they reach an optical density (OD at 600 nm) of 0.8 to 1. […] Test compounds were dissolved in dimethyl sulfoxide (DMSO) to a stock concentration of 4 mg/ml. A two-fold dilution series of this DMSO stock was prepared in a 96 well V bottom microtitre plate from rows A to H. A 3 μL volume of these dilutions were transferred to a 96-well flat bottom microtitre assay plate. Controls to monitor the effects of DMSO and media sterility were included. Each well was inoculated with 150 μL of the above diluted culture. The plates were incubated at 37° C. overnight in a humidified incubator. The following morning, the plates were read using a Spectrophotometer at 600 nm wavelength.

[4] = system: Proteus mirabilis ATCC 43071; test: MIC studies in LB Media; format: cell-based; details: ATCC43071, read-out: Minimum Inhibitory Concentration in LB Media, P. mi
Method: as §1

[5] = system: Citrobacter freundii ATCC 43864; test: MIC studies in LB Media; format: cell-based; details: ATCC43864, read-out: Minimum Inhibitory Concentration in LB Media, C. fr
Method: as §1

P. aurigenosa ATCC 27853 = test: MIC studies in LB Media; format: cell-based; details: Pseudomonas aeruginosa, ATCC27853, read-out: Minimum Inhibitory Concentration in LB Media, P. ae
Method: as §1

E. faecalis ATCC 29212 = test: MIC studies in LB Media; format: cell-based; details: Enterococcus faecalis, ATCC29212, read-out: Minimum Inhibitory Concentration in LB Media, E. fa
Method: as §1

[6] = system: Morganella morganii ATCC 25830; test: MIC studies in LB Media; format: cell-based; details: ATCC25830, read-out: Minimum Inhibitory Concentration in LB Media, M. mo
Method: as §1

E. coli ATCC 25922 = test: MIC studies in LB Media; format: cell-based; details: Escherichia coli, ATCC25922, read-out: Minimum Inhibitory Concentration in LB Media, E. co
Method: as §1

[7] = system: Enterobacter cloacae ATCC 13047; test: MIC studies in LB Media; format: cell-based; details: ATCC13047, read-out: Minimum Inhibitory Concentration in LB Media, E. cl
Method: as §1

A. baumannii ATCC 19606 = test: MIC studies in LB Media; format: cell-based; details: Acinetobacter baumannii, ATCC19606, read-out: Minimum Inhibitory Concentration in LB Media, A. ba
Method: as §1

S. aureus ATCC 29213 = test: MIC studies in LB Media; format: cell-based; details: Staphylococcus aureus, ATCC29213, MIC = 90% inhibition of growth, read-out: Minimum Inhibitory Concentration in LB Media, S. au
Method: as §1

[8] = system: E. cloacae clinical strains; test: Susceptibility (MIC50 and MIC90 determination) studies, clinical strains; format: cell-based; details: CLSI
E. coli clinical strains = test: as above; format: cell-based; details: CLSI
[9] = system: P. aurigenosa clinical strains; test: as above; format: cell-based; details: CLSI
[10] = Escherichia coli, E. coli clinical strains

SMILES: Cn1c(=O)ccc2ccc(F)c(OCCNC[C@H]3CN(c4cnc5c(n4)NC(=O)CO5)C(=O)O3)c21 [Compound 2, (S)-6-(5-(((2-((7-fluoro-1-methyl-2-oxo-1,2-dihydroquinolin-8-yl)oxy)ethyl)amino)methyl)-2-oxooxazolidin-3-yl)-2H-pyrazino[2,3-b][1,4]oxazin-3(4H)-one]
- pIC50 (hERG potassium channel): 3.91
- MEAN ± SD (Log10 CFU/g Lung) ([1]; 3 mg/kg): 8.09 ± 0.14 Log10 CFU/g Lung
- Mean Log 10 CFU/g lung reduction (wrt 4 h PI control: 6.52 Log10CFU/g lung) ([1]; 3 mg/kg): −1.57 Log 10 CFU/g lung
- Log10 CFU/g Lung ([1]; 3 mg/kg): 7.99 Log10 CFU/g Lung and 8.02 Log10 CFU/g Lung and 8.26 Log10 CFU/g Lung
- MEAN ± SD (Log10 CFU/g Lung) ([1]; 10 mg/kg): 6.93 ± 0.44 Log10 CFU/g Lung
- Mean Log 10 CFU/g lung reduction (wrt 4 h PI control: 6.52 Log10CFU/g lung) ([1]; 10 mg/kg): −0.41 Log 10 CFU/g lung
- Log10 CFU/g Lung ([1]; 10 mg/kg): 7.34 Log10 CFU/g Lung and 6.98 Log10 CFU/g Lung and 6.46 Log10 CFU/g Lung
- efficacy with respect to early infection control (in words) ([1]; 30 mg/kg and 100 mg/kg doses): significant efficacy
- MEAN ± SD (Log10 CFU/g Lung) ([1]; 30 mg/kg): 5.35 ± 0.25 Log10 CFU/g Lung
- Mean Log 10 CFU/g lung reduction (wrt 4 h PI control: 6.52 Log10CFU/g lung) ([1]; 30 mg/kg): 1.17 Log 10 CFU/g lung
- Log10 CFU/g Lung ([1]; 30 mg/kg): 5.30 Log10 CFU/g Lung and 5.63 Log10 CFU/g Lung and 5.14 Log10 CFU/g Lung
- MEAN ± SD (Log10 CFU/g Lung) ([1]; 100 mg/kg): 3.1 ± 0.12 Log10 CFU/g Lung
- Mean Log 10 CFU/g lung reduction (wrt 4 h PI control: 6.52 Log10CFU/g lung) ([1]; 100 mg/kg): 3.42 Log 10 CFU/g lung
- Log10 CFU/g Lung ([1]; 100 mg/kg): 3.12 Log10 CFU/g Lung and 3.20 Log10 CFU/g Lung and 2.98 Log10 CFU/g Lung
- IV formulation stable at room temperature [2]: more than 24 hours
- MIC50 ([3]; Aba clinical strains): 0.06 µg/mL (≈ 0.124 µM)
- MIC90 ([3]; Aba clinical strains): 0.25 µg/mL (≈ 0.516 µM)
- Minimum (MIC) ([3]; Aba clinical strains, MIC50/MIC90 in μg/ml, in µg/mL): 0.03
- MIC ATCC19606 ([3]; Aba reference strain ATCC19606, MIC50/MIC90 in μg/ml): 0.06 µg/mL (≈ 0.124 µM)
- MIC (K. pneumoniae ATCC 13883): 0.06 µg/mL (≈ 0.124 µM)
- MIC [4]: 0.125 µg/mL (≈ 0.258 µM)
- MIC [5]: ≤ 0.03 µg/mL
- MIC (P. aurigenosa ATCC 27853): 0.5 µg/mL (≈ 1.03 µM)
- MIC (E. faecalis ATCC 29212): 0.06 µg/mL (≈ 0.124 µM)
- MIC [6]: 0.125 µg/mL (≈ 0.258 µM)
- MIC (E. coli ATCC 25922): 0.03 µg/mL (≈ 0.0619 µM)
- MIC [7]: 0.125 µg/mL (≈ 0.258 µM)
- MIC (A. baumannii ATCC 19606): 0.06 µg/mL (≈ 0.124 µM)
- MIC (S. aureus ATCC 29213): ≤ 0.015 µg/mL
- Minimum (MIC) ([8]; MIC50/MIC90 in μg/ml): 0.03 µg/mL
- MIC50 ([8]; Enterobacter cloacae): 0.125 µg/mL (≈ 0.258 µM)
- MIC90 ([8]; Enterobacter cloacae): 0.25 µg/mL (≈ 0.516 µM)
- Minimum (MIC) (E. coli clinical strains; E. coli clinical strains, MIC50/MIC90 in μg/ml): 0.03 µg/mL
- MIC ATCC25922 (E. coli clinical strains; E. coli reference strain ATCC25922, MIC50/MIC90 in μg/ml): 0.03 µg/mL (≈ 0.0619 µM)
- MIC50 (E. coli clinical strains; [10]): 0.25 µg/mL (≈ 0.516 µM)
- MIC90 (E. coli clinical strains; [10]): 0.25 µg/mL (≈ 0.516 µM)
- MIC50 ([9]; Pae clinical strains): 1 µg/mL (≈ 2.06 µM)
- MIC90 ([9]; Pae clinical strains): 1 µg/mL (≈ 2.06 µM)
- Minimum (MIC) ([9]; Pae clinical strains, MIC50/MIC90 in μg/ml): 0.031 µg/mL
- MIC ATCC27853 ([9]; Pae reference strain ATCC27853, MIC50/MIC90 in μg/ml): 0.5 µg/mL (≈ 1.03 µM)
